Test results reported in the RepoRT retention time repository.
Counter-ions that a name gives are not always drawn.

test: RP, Phenomenex Kinetex C18, 100 × 2.1 mm, 1.7 µm, 40 °C, 0.5 mL/min, estimated dead time 0.44 min; A: water + 1 mM ammonium fluoride; B: acetonitrile; gradient (min/%B) 0/10 2/10 22/100 27/100 27.1/10; settings: stereoisomer not certain

Row | Structure (SMILES) | LC retention time [min]
1 | CC(CCCC(C)C1CCC2C3=CCC4CC(=O)C=CC4(C)C3CCC21C)C(=O)O [(25S)-d1,7-Dafachronic acid] | 14.4
2 | CC(CCCC(C)C1CCC2C3CCC4CC(=O)C=CC4(C)C3CCC12C)C(=O)O [(25S)-d1-Dafachronic acid] | 15.9
3 | CCCCCCCCCC(=O)O [Decanoic acid] | 10.3
4 | CC(CCCC(C)C1CCC2=C3CCC4CC(=O)CCC4(C)C3CCC21C)C(=O)O [(25S)-d8(14)-Dafachronic acid] | 15.9
5 | CC(CCC(=O)O)C1CCC2C3CCC4CC(O)CCC4(C)C3CCC12C (configuration not stated) [Lithocholic acid] | 13.1
6 | CC(CCC(=O)NCC(=O)O)C1CCC2C3C(=O)CC4CC(=O)CCC4(C)C3CC(=O)C12C (configuration not stated) [Glycodehydrocholic acid] | 5.21
7 | C[C@H](CCC(=O)O)[C@H]1CC[C@H]2[C@@H]3CC[C@@H]4CC(=O)CC[C@]4(C)[C@H]3CC[C@]12C [3-Oxo-5beta-cholanoic Acid] | 13.4
8 | CC(CCCC(C)C1CCC2=C3C=CC4=CC(=O)CCC4(C)C3CCC21C)C(=O)O [(25S)-d4,6,8(14)-Dafachronic acid] | 14.3
9 | CC(CCCC(C)C1CCC2C3C(O)CC4=CC(=O)CCC4(C)C3CCC12C)C(=O)O (configuration not stated) [7-Hydroxy-3-oxo-Cholest-4-en-26-oic Acid] | 12
10 | CC(CCC(=O)O)C1CCC2C3C(=O)CC4CC(=O)CCC4(C)C3CC(=O)C12C (configuration not stated) [Dehydrocholic acid] | 7.14
11 | CCCCCCCCCCCCCCCCCCCC(=O)O [Arachidic acid] | 20.3
12 | CC(CCCC(C)C1CCC2C3CCC4=CC(=O)C=CC4(C)C3CCC12C)C(=O)O [(25S)-d1,4-Dafachronic acid] | 14.5

Now from value to compound:

Row | LC retention time [min] | Structure (SMILES)
13 | 9.58 | CC(CC(=O)O)C1CCC2C3CCC4CC(O)CCC4(C)C3CC(O)C12C (configuration not stated) [Nor-Desoxycholic Acid]
14 | 9.12 | CC(CCC(=O)NCCS(=O)(=O)O)C1CCC2C3CCC4CC(O)CCC4(C)C3CCC12C (configuration not stated) [Taurolithocholic acid]
15 | 9.67 | CC(CCC(=O)O)C1CCC2C3C(=O)CC4CC(O)CCC4(C)C3CCC12C (configuration not stated) [Nutriacholic Acid]
16 | 8.04 | CC(CCC(=O)NCCS(=O)(=O)O)C1CCC2C3CCC4CC(O)CCC4(C)C3CC(O)C12C (configuration not stated) [Taurodeoxycholic acid]
17 | 7.88 | CC(CCC(=O)O)C1CCC2C3C(O)CC4CC(O)CCC4(C)C3CC(=O)C12C (configuration not stated) [12-Ketochenodeoxycholic acid]
18 | 9.22 | CC(CCC(=O)NCC(=O)O)C1CCC2C3CCC4CC(O)CCC4(C)C3CCC12C (configuration not stated) [Glycolithocholic Acid sodium salt]
19 | 7.98 | CC(CCC(=O)NCC(=O)O)C1CCC2C3CCC4CC(O)CCC4(C)C3CC(O)C12C (configuration not stated) [Glycodeoxycholic acid]
20 | 6.88 | CC(CCC(=O)NCC(=O)O)C1CCC2C3CC(O)C4CC(O)CCC4(C)C3CCC12C (configuration not stated) [Glycohyodeoxycholic Acid]
21 | 6.87 | CC(CCC(=O)NCC(=O)O)C1CCC2C3C(O)CC4CC(O)CCC4(C)C3CC(O)C12C (configuration not stated) [Glycocholic acid]
22 | 6.97 | CC(CCC(=O)NCCS(=O)(=O)O)C1CCC2C3C(O)CC4CC(O)CCC4(C)C3CC(O)C12C (configuration not stated) [Taurocholic acid]
